Experimental data from US20240254157A1, “MACROLIDE COMPOUNDS” (VANDERBILT UNIVERSITY, priority 2021, published 2024).
Where two headings read alike, the source gives them in different places.

Experiments:
[1] = test system: primary AML patient samples; experiment: Cell viability GI50 against primary AML patient samples (CellTiter-Glo); type: cell-based
Experimental: Compounds were diluted in DMSO (<0.05% DMSO) and dispensed into a 384-well plate using the Echo 555 liquid handler (Labcyte). Following the addition of compounds, cells were pipetted into the 384-well plates at a concentration of between 2,000 and 8,000 cells per well in IMDM or RPMI media, as noted above, supplemented with 10% FBS and incubated at 37° C., 5% CO2 in a tissue culture incubator. Plates were incubated for 48 hours, and cell viability was measured using the CellTiter-Glo reagent (Promega). Percent viability was defined as relative luminescence units (RLU) of each well divided by the RLU of cells in DMSO control. Dose-response curves and GI50 values were determined using linear regression of double-log transformed data (GraphPad Prism version 6.0 h). Control bone marrow-derived CD34+ cells were purchased from STEMCELL Technologies.

[2] = test system: MV-4-11 cell line derived xenograft; experiment: MV-4-11 cell line derived xenograft model; type: in vivo
[3] = test system: E1A oncogene transformed cell lines; conditions: cited from earlier work
untransformed lines = conditions: cited from earlier work
[4] = test system: NCI-60 cell lines that do not exhibit the Warburg effect; conditions: cited from earlier work

SMILES: COCCC[C@H]1O[C@@](O)([C@H](C)[C@@H]2C[C@H](OC)[C@H](O)\C=C(C)/C=C(C)\C=C(\C)[C@@H](O[C@@H]3O[C@@H](C)[C@H](O)[C@@H](O)[C@@H]3O)[C@H](C)\C=C(C)/C=C(OC)\C=C(\C)C(=O)O2)[C@H](OC)[C@@H](O)[C@]1(C)O[C@H]1C[C@H](O)[C@H](O[C@H]2C[C@@](C)(O)[C@H](O)[C@@H](C)O2)[C@@H](C)O1 [ammocidin A]
- GI50 ([1]; patient sample 17-03-006, data collected Jul. 8, 2021, read-out: GI50 from double log regression (converted)): 32.1 nM
- GI50 ([1]; patient sample 17-03-006, data collected Jul. 8, 2021, read-out: viability GI50 from Prism): 10.3 nM
- GI50 ([1]; patient sample 17-03-006, data collected Mar. 8, 2022, read-out: GI50 from double log regression (converted)): 30.8 nM
- GI50 ([1]; patient sample 17-03-006, data collected Mar. 8, 2022, read-out: viability GI50 from Prism): 9.5 nM
- GI50 ([1]; patient sample 18-12-001, data collected Jul. 8, 2021, read-out: GI50 from double log regression (converted)): 31.2 nM
- GI50 ([1]; patient sample 18-12-001, data collected Jul. 8, 2021, read-out: viability GI50 from Prism): 30.2 nM
- GI50 ([1]; patient sample 18-12-001, data collected Mar. 8, 2022, read-out: GI50 from double log regression (converted)): 75.4 nM
- GI50 ([1]; patient sample 29-09-002, data collected Jul. 8, 2021, read-out: GI50 from double log regression (converted)): 21.7 nM
- GI50 ([1]; patient sample 29-09-002, data collected Jul. 8, 2021, read-out: viability GI50 from Prism): 15.8 nM
- efficacy in xenograft model [2]: comparable efficacy

SMILES: COC[C@@H](C[C@H]1O[C@@](O)([C@H](O)[C@@H]2C[C@H](OC)[C@@H](O)CC/C=C(C)/C=C/[C@@H](O[C@@H]3O[C@@H](C)[C@H](OC)[C@@H](O)[C@@H]3O)[C@H](C)/C=C(C)/C=C(C)/C=C(\C)C(=O)O2)[C@H](C)[C@@H](O)[C@H]1C)OC1C[C@](C)(O)[C@@H](O[C@H]2C[C@@H](OC)[C@H](O)[C@@H](C)O2)[C@H](C)O1 (some centres unmarked) [apoptolidin, Apoptolidin A]
- potency against transformed cells ([3]; transformed cells): 10 nM
- fold more potent against transformed cells than untransformed lines ([3]; transformed vs untransformed): 1,000 fold
- potency against untransformed lines (untransformed lines): 10000 nM
- activity in NCI-60 cell lines relying on oxidative phosphorylation [4]: low nanomolar
